This is an account of results in PMC6270726 (Molecules, 2014).

Several values for one entry are separate records, joined by “and”; a condition that tells them apart may be missing. Equal entries are not always repeated. Where two headings read alike, the source gives them in different places.

In test [1] the target is T1, SaSDH (Staphylococcus aureus, UniProt Q6GGA5).
T1 construct: 6His-tag (N); made in house; host or cells: E. coli BL21(DE3)pLysS
T1 sequence (Q6GGA5 1-268): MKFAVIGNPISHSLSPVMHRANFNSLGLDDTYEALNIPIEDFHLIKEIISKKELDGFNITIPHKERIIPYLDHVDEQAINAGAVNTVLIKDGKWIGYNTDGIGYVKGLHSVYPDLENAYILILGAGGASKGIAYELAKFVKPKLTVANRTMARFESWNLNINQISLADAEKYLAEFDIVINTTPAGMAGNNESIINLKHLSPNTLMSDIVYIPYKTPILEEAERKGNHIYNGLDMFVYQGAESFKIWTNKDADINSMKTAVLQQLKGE
Put plainly: SaSDH kinetic parameters for substrates. The following applies: substrate of SaSDH; for Km: 25 °C, random bi-bi fit; for Vmax: saturating levels of both substrates; for Kd: read-out: Kia (dissociation constant). Type of test: biochemical, methicillin-resistant S. aureus. As for the experimental part:
Data were fitted to several models of bi-substrate reactions, all of which were analyzed using SigmaPlot Enzyme Kinetics Module v1.3. […] These were used to derive the turnover number (Kcat) and Kcat/Km.
(§1) Enzyme activity was measured spectrophotometrically at 25 °C at 340 nm, following NADPH generation (ε = 6.19 × 10^3 M^−1 cm^−1). The reaction mixture contained buffer A plus 1 mM SHK, 1 mM NADP^+, and 50 ng of SaSDH.
The data were linearized by the double-reciprocal transformation of Lineweaver and Burk. […] The inversion of the data matrix allowed the determination of the dissociation constant for NADP^+.

The target of test [2] is T1, SaSDH. The experiment in a line: SaSDH inhibition assays (single concentration and inhibition kinetics). The test is classed as biochemical. As to conditions: for inhibition at 200 µM: inhibition of SaSDH activity, compound at 200 µM; for IC50: i0.5 at 400 μM of substrate, 400 μM, 50% inhibition concentration; for Pattern (inhibition mechanism): Cornish-Bowden plot. On the procedure:
Once the model was built, a rigid body docking procedure for virtual screening with a library of small molecules was performed. Because the enzyme is absent in humans, we selected the substrate (SHK) binding site as the target for virtual screening (Figure 3A). From the one thousand small molecules studied, a database of 38,355 poses was generated. The one hundred molecules with the highest binding energies were selected, and the capacities of these molecules to inhibit SaSDH were assessed. Inhibition assays using a concentration of 200 µM of the latter molecules were performed.
In order to study the type of inhibition of compounds on SaSDH, pharmacological and kinetic parameters (i0.5, Kic and Kiu) were determined at various concentrations of these compounds, using SHK and NADP^+ respectively, as substrates. In Figure 4, the plots of reciprocal rate multiplied by the substrate concentrations (S/v) versus inhibitor concentration in the presence of SHK and NADP^+ are shown. The intercept of the extrapolated line on the [i] axis, that corresponds to each compound concentration, is ‒i0.5. This provided a single and accurate way of estimating i0.5, which is important if it is to be used to calculate the inhibition constant.
as §1
The data were fitted to equations for competitive, uncompetitive, non-competitive and mixed inhibition, respectively, using the kinetic module of SigmaPlot program v12.3. All experiments were repeated at least twice.
The 50% inhibition concentrations (i0.5) of compounds against SaSDH were determined and analyzed by fitting to [Equation (2)]. The inhibition mechanism and inhibition constant (Kic and Kiu) were studied by fitting the inhibition data to [Equation (3)]: [drawing 12] (2) [drawing 13] (3)
Kic is the inhibition constant derived from the intercepts, whereas Kiu is the constant derived from the slope of 1/i0.5 vs v/V plots.

Setting [3] is: Kic, substrate shikimate, inhibitor binding to the substrate site.
Setting [4] is: Kiu, substrate NADP^+, inhibitor binding to enzyme-substrate complex.

By Km is commonly meant the substrate concentration at which the rate is half of its maximum. Broadly, the Vmax is the rate approached at saturating substrate. The inhibition is the relative decrease from the control value, in per cent. High values mean a response far below the control, low ones a response near the control. The term Ki denotes the equilibrium dissociation constant of an inhibitor or competing ligand from its target. For orientation: IC50 means the midpoint of a concentration-inhibition curve.

As to `NC(=O)c1ccc[n+]([C@@H]2O[C@H](COP(=O)([O-])OP(=O)(O)OC[C@H]3O[C@@H](n4cnc5c(N)ncnc54)[C@H](OP(=O)(O)O)[C@@H]3O)[C@@H](O)[C@H]2O)c1` [NADP^+], on SaSDH [1], the Kcat was 146 s⁻¹ and 146.16 s⁻¹; the Michaelis-Menten constant (Km) was 42.6 ± 9.9 µM; the maximum rate (Vmax) is 251 µmol/min/mg and 251.41 ± 7.2 µmol/min/mg; the Kd was 21 µM.

For the molecule `O=C(O)C1=C[C@@H](O)[C@@H](O)[C@H](O)C1` [Shikimate, shikimate], at SaSDH [1], the Km worked out at 37.5 ± 3.7 µM, the Vmax was 233.6 ± 1.5 µmol/min/mg and the Kd was found to be 21.2 µM. In addition, on SaSDH [1] (listed as SHK), the maximal velocity (Vmax) amounted to 233 µmol/min/mg and the Kd stood at 21.2 µM.

Regarding `COC(=O)c1sc2ccccc2c1O` [compound 62], at 200 µM the inhibition against SaSDH [2] was 33%.

As to `O=C(O)c1ccc(-c2cccs2)s1` [compound 238, 2,2'-bithiophene-5-carboxylic acid], the results for the inhibition constant (Ki) at SaSDH [2] (setting [3]) and at SaSDH [2] (setting [4]) were 9.53 µM and 48.3 µM, respectively. Further, the IC50 against SaSDH [2] (substrate NADP^+) stood at 108 µM; against SaSDH [2] (substrate shikimate), 123 µM. On SaSDH [2], this molecule had an inhibition at 200 µM of 87%. Moreover, the figures for the “Pattern (inhibition mechanism)” value at SaSDH [2] (with respect to NADP^+) and on SaSDH [2] (with respect to shikimate) were “Uncompetitive” and “Competitive”, respectively.

`OCC1COc2ccccc2C1` (stereo not drawn) [compound 291] showed an inhibition at 200 µM against SaSDH [2] of 31%.

`O=C(O)c1ccc(CN2CCOCC2)cc1` [compound 306] registered an inhibition at 200 µM against SaSDH [2] of 31%.

Turning to `CN(C)CCOc1ccccc1CO` [compound 463], at SaSDH [2], the inhibition at 200 µM stood at 45%.

In the case of `CN(CCO)c1cc(C(F)(F)F)nc2ccccc12` [compound 626], 200 µM produced 49% inhibition on SaSDH [2].

For `CCCCC#Cc1ccc(C(=O)O)o1` [compound 637], at SaSDH [2], the inhibition at 200 µM came to 29%.

Molecule `O=C(O)c1csc(-c2ccc(C(F)(F)F)cc2)n1` [compound 692] came in with an inhibition at 200 µM against SaSDH [2] of 31%.

`Cc1c(O)ccc2c1OC(C)(C)CC2=O` [compound 766, 7-hydroxy-2,2,8-trimethyl-2,3-dihydro-4H-chromen-4-one]: the Ki at SaSDH [2] (setting [3]) is 19.7 µM and 19.8 µM; on SaSDH [2] (setting [4]), 11.3 µM. The figures for the IC50 on SaSDH [2] (substrate NADP^+) and at SaSDH [2] (substrate shikimate) were 564 µM and 343 µM, respectively. The molecule further showed an inhibition at 200 µM on SaSDH [2] of 87%. Moreover, the “Pattern (inhibition mechanism)” value at SaSDH [2] (with respect to NADP^+) is recorded as “Uncompetitive”; on SaSDH [2] (with respect to shikimate), “Competitive”.

With `O=C1COc2cc(O)ccc21` [compound 894, 6-hydroxy-2,3-dihydrobenzo[b]furan-3-one], the Ki at SaSDH [2] (Kic, substrate NADP^+, inhibitor binding to the substrate site) is 901 µM; on SaSDH [2] (setting [3]) it was 58.3 µM; at SaSDH [2] (setting [4]), 5.2 µM; at SaSDH [2] (Kiu, substrate shikimate, inhibitor binding to enzyme-substrate complex) it was 1470 µM. The IC50 amounted to 614 µM against SaSDH [2] (substrate NADP^+) and 143 µM against SaSDH [2] (substrate shikimate). At SaSDH [2], this molecule yielded an inhibition at 200 µM of 99%. Also, the “Pattern (inhibition mechanism)” value is “Mixed-uncompetitive” on SaSDH [2] (with respect to NADP^+) and “Mixed-competitive” at SaSDH [2] (with respect to shikimate).
